Assays:
[1] = molecular target: MAPKAPK2 (Homo sapiens, UniProt P49137); assay: Z′-LYTE kinase inhibition assay
[2] = Pharmacokinetic study in beagles; format: in vivo; details: both, beagle, dog, plasma
[3] = tested on: phosphorylation of VEGFR2 and ERK; assay: Western blot, VEGF/VEGFR2/ERK signalling in HUVECs; format: cell-based, human; details: 5.0 μmol/L; induced by 50 ng/mL hVEGF 165 in HUVECs; P < 0.01
[4] = molecular target: TAOK2 (Homo sapiens, UniProt Q9UL54); assay: Z′-LYTE kinase inhibition assay
[5] = tested on: HUVECs; assay: VEGF-induced HUVECs proliferation; format: cell-based; details: Homo sapiens, HUVEC, 72 h, read-out: IC50 HUVECs
[6] = molecular target: EphA2 (Homo sapiens, UniProt P29317); assay: Z′-LYTE kinase inhibition assay
[7] = molecular target: SRC (Homo sapiens, UniProt P12931); assay: Z′-LYTE kinase inhibition assay
[8] = molecular target: PKA (Homo sapiens, UniProt P17612); assay: Z′-LYTE kinase inhibition assay
[9] = Pharmacokinetic study in rats; format: in vivo; details: both, Sprague-Dawley, rat, plasma
[10] = molecular target: JAK2 (Homo sapiens, UniProt O60674); assay: Z′-LYTE kinase inhibition assay
[11] = tested on: patient-derived tumor (LI-03-0020) xenograft; assay: Liver cancer patient-derived tumor xenograft; format: in vivo, Balb/c nude mice
[12] = tested on: A549 lung cancer xenograft; assay: A549 lung cancer subcutaneous xenograft model; format: in vivo, Balb/c nude mice; details: for T/C / TGI: Day 21; for Tumor volume at Day 21 / area of CD31 (tumor micro-vessel density, IHC): mean ± SEM; for area of CD31 (tumor micro-vessel density, IHC): n = 3, control 3.38 ± 0.49
[13] = tested on: HUVECs; details: 5.0 μmol/L (P < 0.05), 50.0 μmol/L (P < 0.001) vs. hVEGF-165 treated control
[14] = molecular target: p38α (Homo sapiens, UniProt Q16539); assay: Z′-LYTE kinase inhibition assay
[15] = molecular target: MAP4K4 (Homo sapiens, UniProt O95819); assay: Z′-LYTE kinase inhibition assay
[16] = molecular target: GSK3β (Homo sapiens, UniProt P49841); assay: Z′-LYTE kinase inhibition assay
[17] = molecular target: CHK1 (Homo sapiens, UniProt O14757); assay: Z′-LYTE kinase inhibition assay
[18] = molecular target: DYRK3 (Homo sapiens, UniProt O43781); assay: Z′-LYTE kinase inhibition assay
[19] = molecular target: PDK1 (Homo sapiens, UniProt O15530); assay: Z′-LYTE kinase inhibition assay
[20] = H&E staining of vital organs of treated mice; format: in vivo, nude mice; details: 100 and 200 mg/kg, p.o., QD × 3 weeks
[21] = molecular target: VEGFR3 (Homo sapiens, UniProt P35916); assay: Z′-LYTE kinase inhibition assay
[22] = tested on: phosphorylation of FGFR1‒4 and ERK; assay: Western blot, FGF/FGFRs/ERK signalling in HUVECs; format: cell-based, human; details: 5.0 μmol/L; induced by 50 ng/mL bFGF in HUVECs; P < 0.01
[23] = tested on: HBVPs; assay: PDGF-BB-induced HBVPs proliferation; format: cell-based; details: Homo sapiens, 48 h, read-out: IC50 HBVPs
[24] = molecular target: CAMK2α (Homo sapiens, UniProt Q9UQM7); assay: Z′-LYTE kinase inhibition assay
[25] = molecular target: CK1α (Homo sapiens, UniProt P48729); assay: Z′-LYTE kinase inhibition assay
[26] = tested on: phosphorylation of PDGFRβ and ERK; assay: Western blot, PDGF/PDGFRβ/ERK signalling in HBVPs; format: cell-based, human; details: 0.5 and 5.0 μmol/L; induced by 50 ng/mL PDGF-BB in HBVPs
[27] = tested on: NCI-H520 lung cancer xenograft; assay: NCI-H520 lung cancer subcutaneous xenograft model; format: in vivo, Balb/c nude mice; details: for T/C / TGI: Day 21; for Tumor volume at Day 21 / area of CD31 (tumor micro-vessel density, IHC): mean ± SEM; for area of CD31 (tumor micro-vessel density, IHC): n = 3, control 4.96 ± 0.62
[28] = molecular target: FGFR2 (Homo sapiens, UniProt P21802); assay: Z′-LYTE kinase inhibition assay
[29] = molecular target: CDK2 (Homo sapiens, UniProt P24941); assay: Z′-LYTE kinase inhibition assay
[30] = molecular target: JNK1 (Homo sapiens, UniProt P45983); assay: Z′-LYTE kinase inhibition assay
[31] = tested on: HUVECs; assay: Transwell invasion assay; format: cell-based, human; details: driven by 50 ng/mL hVEGF-165; dose-dependent; 0.5 μmol/L P < 0.01; 5.0 and 50.0 μmol/L P < 0.001
[32] = tested on: CT26 colon adenocarcinoma cells; assay: Tumor xenograft model in transgenic zebrafish; format: in vivo; details: 0.5 and 2.0 μmol/L in fish water, 7 days
[33] = molecular target: MST4 (Homo sapiens, UniProt Q9P289); assay: Z′-LYTE kinase inhibition assay
[34] = tested on: HUVECs; assay: HUVEC tube formation assay; format: cell-based, human; details: induced by 50 ng/mL hVEGF-165; 0.5 and 5.0 μmol/L; vs. hVEGF-165 control, P < 0.01
[35] = liver cancer PDX model, 200 mg/kg oral QD, Day 21

Sequence of JAK2 (O60674 whole entry): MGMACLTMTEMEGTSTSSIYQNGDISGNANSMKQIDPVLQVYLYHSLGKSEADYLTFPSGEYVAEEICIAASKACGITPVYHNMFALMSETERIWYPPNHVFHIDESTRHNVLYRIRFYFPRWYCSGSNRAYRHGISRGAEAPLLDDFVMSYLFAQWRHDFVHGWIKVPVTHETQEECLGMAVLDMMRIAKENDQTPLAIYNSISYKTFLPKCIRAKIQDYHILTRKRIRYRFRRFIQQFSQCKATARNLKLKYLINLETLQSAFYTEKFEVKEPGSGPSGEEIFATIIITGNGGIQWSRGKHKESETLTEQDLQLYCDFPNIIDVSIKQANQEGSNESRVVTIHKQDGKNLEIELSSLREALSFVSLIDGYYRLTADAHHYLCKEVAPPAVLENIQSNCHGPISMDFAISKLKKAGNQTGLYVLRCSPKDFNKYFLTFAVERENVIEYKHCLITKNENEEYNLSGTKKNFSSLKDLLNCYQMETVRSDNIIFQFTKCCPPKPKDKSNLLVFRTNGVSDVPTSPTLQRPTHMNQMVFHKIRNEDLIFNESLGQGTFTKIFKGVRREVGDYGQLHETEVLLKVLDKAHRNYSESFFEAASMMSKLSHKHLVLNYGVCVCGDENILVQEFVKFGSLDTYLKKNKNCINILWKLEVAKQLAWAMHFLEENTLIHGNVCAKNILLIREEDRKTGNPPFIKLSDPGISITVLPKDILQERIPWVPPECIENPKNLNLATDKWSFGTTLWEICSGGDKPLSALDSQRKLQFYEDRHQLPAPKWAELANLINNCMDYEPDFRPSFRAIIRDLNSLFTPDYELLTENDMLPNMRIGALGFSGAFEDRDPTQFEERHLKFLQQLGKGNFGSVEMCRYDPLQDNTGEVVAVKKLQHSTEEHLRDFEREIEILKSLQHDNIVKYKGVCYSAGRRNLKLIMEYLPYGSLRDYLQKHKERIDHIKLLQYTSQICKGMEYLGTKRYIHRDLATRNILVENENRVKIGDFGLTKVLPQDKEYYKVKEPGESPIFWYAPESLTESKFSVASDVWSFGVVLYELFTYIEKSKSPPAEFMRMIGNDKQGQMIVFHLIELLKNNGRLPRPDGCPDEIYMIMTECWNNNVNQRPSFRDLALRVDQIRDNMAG
Sequence of p38α (Q16539 whole entry): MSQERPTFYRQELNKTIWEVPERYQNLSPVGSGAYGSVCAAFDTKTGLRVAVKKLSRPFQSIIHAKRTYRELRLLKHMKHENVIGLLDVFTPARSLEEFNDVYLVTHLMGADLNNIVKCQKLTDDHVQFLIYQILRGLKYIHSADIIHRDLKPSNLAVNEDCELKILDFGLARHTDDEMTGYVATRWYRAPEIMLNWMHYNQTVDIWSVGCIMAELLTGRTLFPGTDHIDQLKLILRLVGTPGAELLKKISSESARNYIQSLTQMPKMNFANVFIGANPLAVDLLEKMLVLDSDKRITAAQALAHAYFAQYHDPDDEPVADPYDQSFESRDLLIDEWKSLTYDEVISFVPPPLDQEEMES
Sequence of MST4 (Q9P289 whole entry): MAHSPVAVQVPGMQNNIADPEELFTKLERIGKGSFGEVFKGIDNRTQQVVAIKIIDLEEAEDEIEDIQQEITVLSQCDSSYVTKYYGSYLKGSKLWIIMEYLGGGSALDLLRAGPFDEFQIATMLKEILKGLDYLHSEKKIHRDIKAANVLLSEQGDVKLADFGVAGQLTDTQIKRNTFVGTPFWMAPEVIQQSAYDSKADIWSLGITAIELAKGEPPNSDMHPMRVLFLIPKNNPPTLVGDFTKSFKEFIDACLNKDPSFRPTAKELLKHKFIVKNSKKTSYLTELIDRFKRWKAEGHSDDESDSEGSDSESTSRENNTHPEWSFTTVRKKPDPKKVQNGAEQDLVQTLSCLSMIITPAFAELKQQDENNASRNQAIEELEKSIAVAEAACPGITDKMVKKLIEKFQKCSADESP
Sequence of DYRK3 (O43781 whole entry): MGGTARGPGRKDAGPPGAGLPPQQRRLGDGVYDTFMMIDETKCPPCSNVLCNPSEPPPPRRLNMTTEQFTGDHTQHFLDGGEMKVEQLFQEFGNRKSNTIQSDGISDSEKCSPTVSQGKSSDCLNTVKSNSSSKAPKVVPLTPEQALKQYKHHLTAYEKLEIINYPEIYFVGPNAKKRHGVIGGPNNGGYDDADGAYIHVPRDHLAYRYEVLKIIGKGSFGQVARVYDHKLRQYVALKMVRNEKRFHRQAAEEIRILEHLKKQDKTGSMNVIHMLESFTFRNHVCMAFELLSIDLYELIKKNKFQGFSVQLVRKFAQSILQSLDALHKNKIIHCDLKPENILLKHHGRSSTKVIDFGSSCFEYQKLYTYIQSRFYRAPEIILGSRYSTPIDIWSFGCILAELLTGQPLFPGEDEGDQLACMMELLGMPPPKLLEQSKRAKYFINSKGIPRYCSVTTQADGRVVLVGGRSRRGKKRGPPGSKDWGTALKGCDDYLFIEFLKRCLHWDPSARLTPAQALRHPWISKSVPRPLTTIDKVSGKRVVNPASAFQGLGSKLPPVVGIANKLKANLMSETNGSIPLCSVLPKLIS
Sequence of MAP4K4 (O95819 whole entry): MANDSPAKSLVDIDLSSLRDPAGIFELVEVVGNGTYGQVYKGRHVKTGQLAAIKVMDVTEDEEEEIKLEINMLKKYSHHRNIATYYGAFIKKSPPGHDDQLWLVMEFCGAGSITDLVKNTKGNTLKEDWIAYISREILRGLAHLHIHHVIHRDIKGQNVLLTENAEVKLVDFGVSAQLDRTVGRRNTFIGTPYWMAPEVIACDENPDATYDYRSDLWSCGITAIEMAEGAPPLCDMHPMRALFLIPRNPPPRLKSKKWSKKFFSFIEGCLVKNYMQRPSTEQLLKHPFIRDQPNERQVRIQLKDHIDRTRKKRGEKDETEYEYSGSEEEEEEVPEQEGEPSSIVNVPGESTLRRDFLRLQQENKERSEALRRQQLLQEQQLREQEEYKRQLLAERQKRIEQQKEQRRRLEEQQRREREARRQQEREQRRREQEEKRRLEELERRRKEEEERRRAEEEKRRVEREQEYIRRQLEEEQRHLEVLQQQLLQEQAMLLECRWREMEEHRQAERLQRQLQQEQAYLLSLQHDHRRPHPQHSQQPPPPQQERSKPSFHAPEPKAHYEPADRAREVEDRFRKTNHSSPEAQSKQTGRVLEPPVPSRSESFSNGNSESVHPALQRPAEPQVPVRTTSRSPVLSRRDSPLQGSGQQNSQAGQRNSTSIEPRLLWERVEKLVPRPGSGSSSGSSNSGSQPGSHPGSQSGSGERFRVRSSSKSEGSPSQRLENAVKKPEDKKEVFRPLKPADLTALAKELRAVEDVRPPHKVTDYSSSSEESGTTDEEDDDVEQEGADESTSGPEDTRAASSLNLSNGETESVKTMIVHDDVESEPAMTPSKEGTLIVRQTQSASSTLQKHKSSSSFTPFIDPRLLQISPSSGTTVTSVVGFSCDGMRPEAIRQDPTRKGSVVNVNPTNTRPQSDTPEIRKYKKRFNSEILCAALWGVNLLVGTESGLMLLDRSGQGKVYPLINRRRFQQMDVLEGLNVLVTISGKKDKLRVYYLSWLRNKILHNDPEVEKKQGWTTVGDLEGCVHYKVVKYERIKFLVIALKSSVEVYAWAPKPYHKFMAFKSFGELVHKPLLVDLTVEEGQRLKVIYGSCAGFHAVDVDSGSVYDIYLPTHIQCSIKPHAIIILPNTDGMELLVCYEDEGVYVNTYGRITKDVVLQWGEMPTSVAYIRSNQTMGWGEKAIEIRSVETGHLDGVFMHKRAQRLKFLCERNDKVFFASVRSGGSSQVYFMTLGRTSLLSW
Sequence of GSK3β (P49841 whole entry): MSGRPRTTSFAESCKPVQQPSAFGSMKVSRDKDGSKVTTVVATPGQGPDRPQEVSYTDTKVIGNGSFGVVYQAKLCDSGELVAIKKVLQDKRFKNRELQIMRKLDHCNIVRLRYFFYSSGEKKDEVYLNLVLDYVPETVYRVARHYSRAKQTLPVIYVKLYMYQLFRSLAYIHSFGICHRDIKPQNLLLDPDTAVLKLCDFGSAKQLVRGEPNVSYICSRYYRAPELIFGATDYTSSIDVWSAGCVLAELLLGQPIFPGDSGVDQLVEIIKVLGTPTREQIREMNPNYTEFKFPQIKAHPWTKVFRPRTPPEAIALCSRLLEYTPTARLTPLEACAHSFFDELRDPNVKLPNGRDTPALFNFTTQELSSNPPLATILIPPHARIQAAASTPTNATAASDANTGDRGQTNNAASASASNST
Sequence of MAPKAPK2 (P49137 whole entry): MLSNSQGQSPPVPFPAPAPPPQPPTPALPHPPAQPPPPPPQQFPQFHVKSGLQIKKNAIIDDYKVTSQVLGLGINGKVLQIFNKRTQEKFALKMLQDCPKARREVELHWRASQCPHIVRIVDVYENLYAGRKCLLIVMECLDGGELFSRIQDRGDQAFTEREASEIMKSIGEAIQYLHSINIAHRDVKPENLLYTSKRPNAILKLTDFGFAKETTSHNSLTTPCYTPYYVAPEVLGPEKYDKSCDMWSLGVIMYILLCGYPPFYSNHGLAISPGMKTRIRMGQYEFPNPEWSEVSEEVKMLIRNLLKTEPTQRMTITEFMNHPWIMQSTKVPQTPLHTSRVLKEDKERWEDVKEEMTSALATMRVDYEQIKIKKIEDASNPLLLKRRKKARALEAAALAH
Sequence of CAMK2α (Q9UQM7 whole entry): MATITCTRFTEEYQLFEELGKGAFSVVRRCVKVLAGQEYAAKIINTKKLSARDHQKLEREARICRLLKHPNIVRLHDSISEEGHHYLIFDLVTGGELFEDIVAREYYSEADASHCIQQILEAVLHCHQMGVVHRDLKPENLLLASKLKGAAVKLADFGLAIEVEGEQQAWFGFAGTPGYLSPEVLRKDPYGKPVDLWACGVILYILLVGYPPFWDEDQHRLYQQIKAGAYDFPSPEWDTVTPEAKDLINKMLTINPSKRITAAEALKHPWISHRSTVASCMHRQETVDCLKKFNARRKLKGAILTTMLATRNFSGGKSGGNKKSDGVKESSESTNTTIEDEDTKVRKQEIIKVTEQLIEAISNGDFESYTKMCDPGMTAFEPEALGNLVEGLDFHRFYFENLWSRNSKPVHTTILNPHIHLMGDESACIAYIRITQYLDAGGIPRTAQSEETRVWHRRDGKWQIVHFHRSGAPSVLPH

COc1cc2nccc(Oc3ccc(NC(=S)NC4CC4)c(Cl)c3F)c2cc1C(N)=O [WXFL-152, 4-(3-Chloro-4-(3-cyclopropylthioureido)-2-fluorophenoxy)-7-methoxyquinoline-6-carboxamide]
IC50 [1]: > 10 µM | AUC(0-inf) ([2]; iv, 2 mg/kg): 5.13 ± 0.9 µM·h | AUC(0-t) ([2]; iv, 2 mg/kg): 5.1 ± 0.9 µM·h | Cmax ([2]; iv, 2 mg/kg): 4.36 ± 0.96 µM | Vd ([2]; iv, 2 mg/kg): 1.45 ± 0.33 L/kg | clearance ([2]; iv, 2 mg/kg): 14.5 ± 2.74 mL/min/kg | half-life ([2]; iv, 2 mg/kg): 4.91 ± 2.18 h | AUC(0-inf) ([2]; po, 10 mg/kg): 20.2 ± 20.2 µM·h | AUC(0-t) ([2]; po, 10 mg/kg): 19.6 ± 20.2 µM·h | Cmax ([2]; po, 10 mg/kg): 6.28 ± 6.57 µM | Tmax ([2]; po, 10 mg/kg): 1.25 ± 0.612 h | bioavailability ([2]; po, 10 mg/kg): 76.9% | half-life ([2]; po, 10 mg/kg): 5.77 ± 2.17 h | AUC(0-inf) ([2]; po, 30 mg/kg): 51.8 ± 62.3 µM·h | AUC(0-t) ([2]; po, 30 mg/kg): 50 ± 58.8 µM·h | Cmax ([2]; po, 30 mg/kg): 16.2 ± 16.5 µM | Tmax ([2]; po, 30 mg/kg): 0.917 ± 0.585 h | bioavailability ([2]; po, 30 mg/kg): 65.4% | half-life ([2]; po, 30 mg/kg): 5.25 ± 1.03 h | AUC(0-inf) ([2]; po, 30 mg/kg/day): 37.9 ± 31.9 µM·h | AUC(0-t) ([2]; po, 30 mg/kg/day): 23.7 ± 16.1 µM·h | Cmax at 7 days ([2]; po, 30 mg/kg/day): 6.97 ± 5.26 µM | Tmax at 7 days ([2]; po, 30 mg/kg/day): 1.08 ± 0.736 h | half-life ([2]; po, 30 mg/kg/day): 12.3 ± 12.6 h | AUC(0-inf) ([2]; po, 100 mg/kg): 230 ± 51.5 µM·h | AUC(0-t) ([2]; po, 100 mg/kg): 199 ± 90.5 µM·h | Cmax ([2]; po, 100 mg/kg): 47.8 ± 20.8 µM | Tmax ([2]; po, 100 mg/kg): 2.33 ± 0.816 h | bioavailability ([2]; po, 100 mg/kg): 78% | half-life ([2]; po, 100 mg/kg): 2.99 ± 0.7 h | phosphorylation of VEGFR2 and ERK [3]: significantly suppressed | IC50 [4]: > 10 µM | IC50 [5]: 0.071 µM | IC50 [6]: > 3.33 µM | IC50 [7]: 2.65 µM | IC50 [8]: > 10 µM | AUC(0-inf) ([9]; iv, 3 mg/kg): 35.2 ± 8.3 µM·h | AUC(0-t) ([9]; iv, 3 mg/kg): 35 ± 8.2 µM·h | Cmax ([9]; iv, 3 mg/kg): 40.4 ± 3 µM | Vd ([9]; iv, 3 mg/kg): 0.26 ± 0.05 L/kg | clearance ([9]; iv, 3 mg/kg): 3.24 ± 0.81 mL/min/kg | half-life ([9]; iv, 3 mg/kg): 1.18 ± 0.18 h | AUC(0-inf) ([9]; po, 15 mg/kg): 77.7 ± 39.6 µM·h | AUC(0-t) ([9]; po, 15 mg/kg): 74.6 ± 36.3 µM·h | Cmax ([9]; po, 15 mg/kg): 26 ± 13.3 µM | Tmax ([9]; po, 15 mg/kg): 0.58 ± 0.2 h | bioavailability ([9]; po, 15 mg/kg): 42% | half-life ([9]; po, 15 mg/kg): 2.21 ± 0.39 h | AUC(0-inf) ([9]; po, 50 mg/kg): 110 ± 84.9 µM·h | AUC(0-t) ([9]; po, 50 mg/kg): 110 ± 84.9 µM·h | Cmax ([9]; po, 50 mg/kg): 32.3 ± 11.3 µM | Tmax ([9]; po, 50 mg/kg): 0.54 ± 0.25 h | bioavailability ([9]; po, 50 mg/kg): 18.7% | half-life ([9]; po, 50 mg/kg): 2 ± 0.55 h | AUC(0-inf) ([9]; po, 50 mg/kg/day): 151 ± 63.5 µM·h | AUC(0-t) ([9]; po, 50 mg/kg/day): 160 ± 60.3 µM·h | Cmax at 7 days ([9]; po, 50 mg/kg/day): 46.5 ± 13.9 µM | Tmax at 7 days ([9]; po, 50 mg/kg/day): 1.42 ± 0.67 h | half-life at 7 days ([9]; po, 50 mg/kg/day): 2.17 ± 0.55 h | AUC(0-inf) ([9]; po, 150 mg/kg): 233 ± 158 µM·h | AUC(0-t) ([9]; po, 150 mg/kg): 232 ± 158 µM·h | Cmax ([9]; po, 150 mg/kg): 48.7 ± 9.5 µM | Tmax ([9]; po, 150 mg/kg): 1.58 ± 2.26 h | bioavailability ([9]; po, 150 mg/kg): 13% | half-life ([9]; po, 150 mg/kg): 2.54 ± 0.8 h | IC50 [10]: > 10 µM | area of CD31 (tumor micro-vessel density, IHC) ([11]; liver PDX model, 200 mg/kg, mean ± SEM, n = 3, control 0.30 ± 0.10): 0.19 ± 0.06 | T/C [11, 35]: 35% | TGI [11, 35]: 76% | Tumor volume at Day 21 ([11]; liver cancer PDX model, 200 mg/kg oral QD, mean ± SEM): 334 ± 69 mm^3 | T/C ([12]; 50 mg/kg p.o. QD): 29% | TGI ([12]; 50 mg/kg p.o. QD): 78% | Tumor volume at Day 21 ([12]; 50 mg/kg p.o. QD): 430 ± 42 mm^3 | area of CD31 (tumor micro-vessel density, IHC) ([12]; 50 mg/kg): 2.20 ± 0.29 | T/C ([12]; 100 mg/kg p.o. QD): 27% | TGI ([12]; 100 mg/kg p.o. QD): 80% | Tumor volume at Day 21 ([12]; 100 mg/kg p.o. QD): 401 ± 38 mm^3 | area of CD31 (tumor micro-vessel density, IHC) ([12]; 100 mg/kg): 1.27 ± 0.48 | migration of HUVECs (wound healing) [13]: appreciably inhibited | IC50 [14]: > 3.33 µM | IC50 [15]: 0.079 µM | IC50 [16]: > 10 µM | IC50 [17]: > 10 µM | IC50 [18]: > 10 µM | IC50 [19]: > 10 µM | pathologic changes in heart, liver, spleen, lung and kidney (H&E) [20]: No significant pathologic changes | IC50 [21]: 0.0085 µM | phosphorylation of FGFR1‒4 and ERK [22]: significantly inhibited | IC50 [23]: 1.94 µM | IC50 [24]: > 10 µM | IC50 [25]: > 10 µM | phosphorylation of PDGFRβ and ERK [26]: significantly blocked | T/C ([27]; 50 mg/kg p.o. QD): 58% | TGI ([27]; 50 mg/kg p.o. QD): 51% | Tumor volume at Day 21 ([27]; 50 mg/kg p.o. QD): 704 ± 107 mm^3 | area of CD31 (tumor micro-vessel density, IHC) ([27]; 50 mg/kg): 1.96 ± 0.05 | T/C ([27]; 100 mg/kg p.o. QD): 36% | TGI ([27]; 100 mg/kg p.o. QD): 72% | Tumor volume at Day 21 ([27]; 100 mg/kg p.o. QD): 478 ± 85 mm^3 | area of CD31 (tumor micro-vessel density, IHC) ([27]; 100 mg/kg): 1.83 ± 0.26 | IC50 [28]: 0.0155 µM | IC50 [29]: > 10 µM | IC50 [30]: > 10 µM | invasion of HUVECs [31]: significantly inhibited | tumor angiogenesis and tumor size in zebrafish xenograft [32]: few tumors exhibiting angiogenesis and small tumors | IC50 [33]: > 10 µM | tube formation of HUVECs [34]: significantly suppressed
